Test results published in patent US20260327234A1, “NOVEL COMPOUNDS AS CYP11A1 INHIBITORS AND METHODS OF USE THEREOF” (Shenzhen Ionova Life Science Co., Ltd., priority 2023, published 2026).

Assays:
[1] = target: T1, testosterone (T) production in NCI-H295R cells (Homo sapiens, UniProt P05108); experiment: H295R Steroid Biosynthesis Inhibition Assay - inhibition of testosterone (T) production in NCI-H295R cells; type: cell-based; conditions: 48 h, LC-MS/MS, read-out: Inh. of T IC50
T1 construct: testosterone measured by LC-MS/MS as downstream steroid
T1 sequence (P05108 40-521): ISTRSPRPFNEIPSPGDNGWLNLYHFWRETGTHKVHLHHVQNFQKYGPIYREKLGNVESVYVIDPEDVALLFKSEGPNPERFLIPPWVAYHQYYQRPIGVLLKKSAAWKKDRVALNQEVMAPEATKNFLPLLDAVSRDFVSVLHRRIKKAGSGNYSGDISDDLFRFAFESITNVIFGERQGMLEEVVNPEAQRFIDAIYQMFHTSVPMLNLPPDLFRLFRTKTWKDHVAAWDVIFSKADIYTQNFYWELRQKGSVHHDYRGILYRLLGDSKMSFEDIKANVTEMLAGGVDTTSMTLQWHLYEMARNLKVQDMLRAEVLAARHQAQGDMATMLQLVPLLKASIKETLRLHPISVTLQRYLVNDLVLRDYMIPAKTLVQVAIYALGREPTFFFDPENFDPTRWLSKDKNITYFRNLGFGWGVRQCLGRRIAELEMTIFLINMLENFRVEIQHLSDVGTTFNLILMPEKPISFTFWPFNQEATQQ
Method: (§1) Steroid Biosynthesis Inhibition by test compounds in NCI-H295R cells (ATCC) was studied by measuring the cellular production of pregnenolone (P) catalyzed by CYP11A1 and the downstream steroid, testosterone (T). Cells were cultured in Dulbecco's modified eagle's medium F12 (DMEM/F12) with phenol red (Gibco, Cat. No. 11330032) supplemented with 2% UltroserG (Pall, Cat. No. 15950-017, USA), 1% ITS-Premix and 1% penicillin and streptomycin (Hyclone, Cat. No. SV30010, USA). Prior to the assay, cells were thawed and passed 4 times. The maximal passage number used for the assay was 10. For this assay, DMEM/F12 without phenol red supplemented with 10% charcoal-stripped fetal bovine serum (VivaCell, Cat. No. C3830-0500, USA) were used. In a 96-well plate, 60,000 cells/well were plated (90 μL/well) and incubated for 24 h. Test compounds, diluted in a serial dilution ranging from 1000 nM to 0.15 nM in the assay medium, were added to the plate. After 48 h of incubation, solution from each well were collected and transferred to individual 1.5 mL centrifuge tubes, and then 5 ng/mL deuterated testosterone (D3-testosterone) and 50 ng/mL deuterated pregnenolone (D4-pregnenolone) in 200 μL acetonitrile were added. After vigorously mixing for 5 min, the mixture was centrifuged at 12,700 rpm for 15 min. An aliquot of 250 μL supernatant was collected and dried under N2 stream. After addition of 150 μL Methanol:water (1:1, v/v) to the dried product, 50 μL sample of this solution was injected into the LC-MS/MS system for analysis.
(§2) The half-maximal inhibitory concentration (IC50) for steroid biosynthesis inhibition was determined by curve-fitting with the 4-variable inhibitory dose response equation using GraphPad Prism software.
(§3) Testosterone and pregnenolone were analyzed using Shimadzu LC30AD HPLC system (Shimadzu, Kyoto, Japan) coupled with AB SCIEX Qtrap 5500 triple quadrupole mass spectrometer (AB Sciex, Framingham, MA, USA) via ESI interface in the positive ionization mode. An ACQUITY UPLC BEH Shield RP18 column (1.7 μm, 2.1×50 mm, Milford, MA, USA) maintained at 40° C. was used to separate analytes and IS form the sample matrix.
(§4) The mobile phase was a mixture of 10 mM ammonium acetate in water containing 0.2% formic acid (A) and methanol containing 0.2% formic acid (B) at a flow rate of 0.6 mL/min. The gradient program was set as follows: from 0 min to 0.5 min, 60% B; from 0.5 min to 3.5 min, 90% B; from 3.5 min to 4.5 min, 90% B; from 4.51 min to 5.0 min, 60% B. The injection volume was […].
(§5) The MS/MS parameters were set as follows: ion spray voltage, 5500 V; curtain gas, 35 psi; Gas 1, 55 psi; Gas 2: 55 psi; temperature, […]. The optimized multiple reaction monitoring (MRM) fragmentation transitions and MS parameters of each analyte are summarized in Table 1.

CYP11A1 = target: T2, CYP11A1 (Homo sapiens, UniProt P05108); experiment: H295R Steroid Biosynthesis Inhibition Assay - inhibition of pregnenolone (P) production catalyzed by CYP11A1 in NCI-H295R cells; type: cell-based; conditions: 48 h, LC-MS/MS, read-out: Inh. of P IC50
T2 construct: measuring the cellular production of pregnenolone (P) catalyzed by CYP11A1; host or cells: NCI-H295R
T2 sequence (P05108 40-521): T1 sequence (P05108 40-521)
Method: as §1, §2, §3, §4, §5

SMILES	IC50 [1]	IC50 (CYP11A1)
CS(=O)(=O)N1CCC(c2cnc3cc(CN4Cc5ccc(C(F)(F)F)cc5C4)ccc3n2)CC1 [Compound 90]	≤ 40 nM	≤ 40 nM
CS(=O)(=O)c1ccc(-c2cc3oc(CN4Cc5ccccc5C4)cc(=O)c3o2)cc1 [Compound 49]	≤ 40 nM	≤ 40 nM
CS(=O)(=O)N1C[C@@H]2[C@H](C1)[C@H]2c1cc2oc(CN3Cc4ccccc4C3)cc(=O)c2o1 [Compound 13, 5-(isoindolin-2-ylmethyl)-2-((1R,5S,6r)-3-(methylsulfonyl)-3-azabicyclo[3.1.0]hexan-6-yl)-7H-furo[3,2-b]pyran-7-one]	≤ 40 nM	≤ 40 nM
CCS(=O)(=O)N1CCC(c2cnc3cc(CN4Cc5ccccc5C4)ccc3n2)CC1 [Compound 91]	≤ 40 nM	≤ 40 nM
CS(=O)(=O)N1CCC(c2cc(=O)n3cc(CN4Cc5ccccc5C4)ccc3n2)CC1 [Compound 62]	≥ 101 nM	40 to 100 nM
Cc1ccc2c(c1)CN(Cc1cc(=O)c3oc(C4CCN(S(C)(=O)=O)CC4)cc3o1)C2 [Compound 18]	≤ 40 nM	≤ 40 nM
CCCCS(=O)(=O)N1CCC(c2cnc3cc(CN4Cc5ccccc5C4)ccc3n2)CC1 [Compound 93]	≤ 40 nM	≤ 40 nM
CS(=O)(=O)N1CC=C(c2ccc3nc(CN4Cc5ccccc5C4)cnc3c2)CC1 [Compound 81]	41 to 100 nM	≤ 40 nM
CS(=O)(=O)N1CCC2(CC1)CC(c1cc3oc(CN4Cc5ccccc5C4)cc(=O)c3o1)C2 [Compound 22]	≤ 40 nM	≤ 40 nM
CS(=O)(=O)N1CCC(c2cc3oc(CN4CCc5ccccc5C4)cc(=O)c3o2)CC1 [Compound 21]	≥ 101 nM	≥ 100 nM
O=c1cc(CN2Cc3ccccc3C2)oc2cc(C34CCC(O)(CC3)CC4)oc12 [Compound 34]	≤ 40 nM	≤ 40 nM
COC(=O)N1CCC(c2cnc3cc(CN4Cc5ccccc5C4)ccc3n2)CC1 [Compound 110]	≤ 40 nM	≤ 40 nM
CC(c1ccc(OCC2CCN(S(C)(=O)=O)CC2)c2ncccc12)N1Cc2ccccc2C1 (stereo not drawn) [Compound 9]	≤ 40 nM	≤ 40 nM
O=c1cc(CN2Cc3ccccc3C2)oc2cc(C3CCC(O)C3)oc12 (stereo not drawn) [Compound 35]	41 to 100 nM	≤ 40 nM
CS(=O)(=O)N1CC2(CC(c3ccc4cc(CN5Cc6ccccc6C5)ccc4n3)C2)C1 [Compound 75]	≤ 40 nM	≤ 40 nM
CS(=O)(=O)N1CCC(COc2ccc(C3(N4Cc5ccccc5C4)CC3)c3cccnc23)CC1 [Compound 10]	≥ 101 nM	40 to 100 nM
COC(=O)N[C@H]1CC[C@H](c2cc3oc(CN4Cc5ccccc5C4)cc(=O)c3o2)CC1 [Compound 45]	≤ 40 nM	≤ 40 nM
CS(=O)(=O)N1CCC(c2cc3oc(CN4Cc5ccc(C(F)(F)F)cc5C4)cc(=O)c3o2)CC1 [Compound 20]	≤ 40 nM	≤ 40 nM
CC(C)OC(=O)N1CCC(c2cnc3cc(CN4Cc5ccccc5C4)ccc3n2)CC1 [Compound 112]	41 to 100 nM	40 to 100 nM
O=c1cc(CN2Cc3ccccc3C2)occ1OC[C@H]1CC[C@H](O)CC1 [Compound 2]	≤ 40 nM	≤ 40 nM
Cc1nc(C2CCN(S(C)(=O)=O)CC2)nc2ccc(CN3Cc4ccccc4C3)cc12 [Compound 83]	≤ 40 nM	≤ 40 nM
O=c1cc(CN2Cc3ccccc3C2)oc2cc([C@@H]3CCC[C@@H](O)C3)oc12 [Compound 36]	≥ 101 nM	40 to 100 nM
CS(=O)(=O)N1CCC(COc2ccc(CN3Cc4ccccc4C3)c3ccccc23)CC1 [Compound 7]	≤ 40 nM	≤ 40 nM

SMILES	IC50 [1]	IC50 (CYP11A1)
C[C@]1(c2cc3oc(CN4Cc5ccccc5C4)cc(=O)c3o2)CC[C@H](O)CC1 [Compound 41]	≤ 40 nM	≤ 40 nM
CN(C)C(=O)N1CCC(c2cnc3cc(CN4Cc5ccccc5C4)ccc3n2)CC1 [Compound 121]	41 to 100 nM	≤ 40 nM
CS(=O)(=O)N1CCC(c2nc3cc(CN4Cc5ccccc5C4)ccc3s2)CC1 [Compound 128]	41 to 100 nM	≤ 40 nM
CS(=O)(=O)N1CCC(c2ccc3oc(CN4Cc5ccccc5C4)cc(=O)c3n2)CC1 [Compound 58]	≤ 40 nM	≤ 40 nM
CS(=O)(=O)N1CCC(c2ncc3cc(CN4Cc5ccccc5C4)ccc3n2)CC1 [Compound 82]	41 to 100 nM	≤ 40 nM
CS(=O)(=O)N1CCC(c2cc3cc(CN4Cc5ccccc5C4)ccc3o2)CC1 [Compound 126]	≤ 40 nM	≤ 40 nM
COc1nc(C2CCN(S(C)(=O)=O)CC2)nc2ccc(CN3Cc4ccccc4C3)cc12 [Compound 85]	≤ 40 nM	≤ 40 nM
CS(=O)(=O)N1CCC(c2ccc3cc(CN4Cc5ccccc5C4)cnc3n2)CC1 [Compound 78]	≤ 40 nM	≤ 40 nM
Cc1oc(CN2Cc3ccccc3C2)cc(=O)c1OCC1CCN(S(C)(=O)=O)CC1 [Compound 6]	41 to 100 nM	≤ 40 nM
CS(=O)(=O)N1CCC(c2ccc3cc(CN4Cc5ccccc5C4)ncc3c2)CC1 [Compound 68]	≤ 40 nM	≤ 40 nM
CS(=O)(=O)N1C[C@@H]2[C@H](C1)[C@H]2c1cnc2cc(CN3Cc4ccccc4C3)ccc2n1 [Compound 86]	41 to 100 nM	≤ 40 nM
O=C(c1ncc[nH]1)N1CCC(c2cnc3cc(CN4Cc5ccccc5C4)ccc3n2)CC1 [Compound 107]	≥ 101 nM	40 to 100 nM
CS(=O)(=O)Nc1ccc(-c2cc3oc(CN4Cc5ccccc5C4)cc(=O)c3o2)cc1 [Compound 52]	≤ 40 nM	≤ 40 nM
O=C(C1CC1)N1CCC(c2cnc3cc(CN4Cc5ccccc5C4)ccc3n2)CC1 [Compound 102]	41 to 100 nM	40 to 100 nM
O=c1cc(CN2Cc3ccccc3C2)oc2cc([C@H]3CC[C@@](O)(C(F)(F)F)CC3)oc12 [Compound 37]	≤ 40 nM	40 to 100 nM
CS(=O)(=O)N1CCC(COc2coc(CN3CCn4cccc4C3)cc2=O)CC1 [Compound 3]	41 to 100 nM	≤ 40 nM
COc1ccc2c(c1)CN(Cc1cc(=O)c3oc(C4CCN(S(C)(=O)=O)CC4)cc3o1)C2 [Compound 19]	≤ 40 nM	≤ 40 nM
OC1CCN(c2ccc3cc(CN4Cc5ccccc5C4)ccc3n2)CC1 [Compound 74]	≥ 101 nM	≥ 100 nM
O=C(c1ccccc1)N1CCC(c2cnc3cc(CN4Cc5ccccc5C4)ccc3n2)CC1 [Compound 104]	≥ 101 nM	40 to 100 nM
O=C(NC1COC1)N1CCC(c2cnc3cc(CN4Cc5ccccc5C4)ccc3n2)CC1 [Compound 118]	≥ 101 nM	≥ 100 nM
O=C(OC1CCCC1)N1CCC(c2cnc3cc(CN4Cc5ccccc5C4)ccc3n2)CC1 [Compound 114]	≤ 40 nM	≤ 40 nM
O=C(c1nccs1)N1CCC(c2cnc3cc(CN4Cc5ccccc5C4)ccc3n2)CC1 [Compound 109]	41 to 100 nM	40 to 100 nM
